Data taken from ChEMBL document CHEMBL4052619, “First example of peptides targeting the dimer interface of Leishmania infantum trypanothione reductase with potent in vitro antileishmanial activity” (Eur J Med Chem, 2017).
pIC50: −log10 of the molar value. Active and inactive are the calls of the source. No cut-off for these calls is given here. Bridge positions count the residues as written; N and C are the ends. Square brackets hold non-standard residues; d marks the D form. Peptide text beside a SMILES is read from it. ξ: configuration not given here. ξQ = NC(=O)CCC(N)C(=O)O; ξNle = CCCCC(N)C(=O)O; Aib = CC(C)(N)C(=O)O

Legend:
Trypanothione reductase [1] = target: T1, Trypanothione reductase (Leishmania infantum, UniProt A4HSF7); assay: Inhibition of recombinant Leishmania infantum TryR preincubated for 10 mins followed by T[S]2 substrate addition and measured after 1 hr in presence of NADPH
T1 sequence (A4HSF7 whole entry): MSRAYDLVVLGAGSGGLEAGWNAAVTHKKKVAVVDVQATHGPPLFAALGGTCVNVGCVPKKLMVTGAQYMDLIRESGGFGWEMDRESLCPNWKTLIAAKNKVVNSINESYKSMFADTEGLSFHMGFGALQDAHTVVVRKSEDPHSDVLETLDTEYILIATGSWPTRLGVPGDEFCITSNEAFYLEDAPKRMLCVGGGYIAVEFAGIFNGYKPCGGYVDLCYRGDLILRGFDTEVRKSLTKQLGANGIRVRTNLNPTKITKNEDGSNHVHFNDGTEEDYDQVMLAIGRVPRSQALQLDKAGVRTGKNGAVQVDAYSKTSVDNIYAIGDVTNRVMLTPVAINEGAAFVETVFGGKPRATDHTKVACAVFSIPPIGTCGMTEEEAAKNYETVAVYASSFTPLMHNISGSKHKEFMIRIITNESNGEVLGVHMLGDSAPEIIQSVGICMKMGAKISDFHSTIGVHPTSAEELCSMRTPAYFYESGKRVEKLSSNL

Trypanothione reductase [2] = target: T1, Trypanothione reductase; assay: Inhibition of recombinant His/FLAG-tagged Leishmania infantum TryR dimerization assessed as dimer disruption after 1 hr by ELISA
Leishmania infantum [3] = assay: Antileishmanial activity against Leishmania infantum axenic amastigotes assessed as induction of cell death at 25 uM after 24 hrs by propidium iodide staining based flow cytometry; type: functional
Leishmania infantum [4] = assay: Antileishmanial activity against Leishmania infantum MCAN/ES/89/IPZ229/1/89 promastigotes assessed as induction of cell death at 25 uM after 24 hrs by propidium iodide staining based flow cytometry; type: functional
Leishmania infantum [5] = assay: Antileishmanial activity against Leishmania infantum axenic amastigotes assessed as induction of cell death after 24 hrs by propidium iodide staining based flow cytometry; type: functional
Leishmania infantum [6] = assay: Antileishmanial activity against Leishmania infantum MCAN/ES/89/IPZ229/1/89 promastigotes assessed as induction of cell death after 24 hrs by propidium iodide staining based flow cytometry; type: functional; details: MCAN/ES/89/IPZ229/1/89, 24 h
[7] = Cytotoxicity against human THP1 cells assessed as induction of cell death after 24 hrs by propidium iodide staining based flow cytometry; details: THP-1 cells, read-out: LC50

| Compound | pIC50 (Trypanothione reductase [1]) | pIC50 (Trypanothione reductase [2]) | Activity (Leishmania infantum [3]) | Activity (Leishmania infantum [4]) | LC50 (Leishmania infantum [5]) [µM] | LC50 (Leishmania infantum [6]) [µM] | CC50 at 24 h [7] [µM] |
| --- | --- | --- | --- | --- | --- | --- | --- |
| CC[C@H](C)[C@H](NC(=O)[C@@H]1CCCCNC(=O)CC[C@H](NC(=O)[C@@H](NC(=O)[C@H](CCCCN)NC(=O)[C@@H]2CCCN2C(C)=O)[C@@H](C)CC)C(=O)N[C@@H](CCC(N)=O)C(=O)NC(CO)C(=O)N[C@@H](C(C)C)C(=O)N1)C(N)=O (single isomer, unassigned) | < 4.12 | < 4.12 | inactive | inactive |  |  |  |
| CCCCC(NC(=O)[C@@H]1CCCCNC(=O)CC[C@H](NC(=O)[C@@H](NC(=O)[C@H](CO)NC(=O)[C@H](CCC(N)=O)NC(=O)[C@@H](NC(=O)[C@@H](NC(=O)[C@H](CCCCN)NC(=O)[C@@H]2CCCN2C(C)=O)[C@@H](C)CC)[C@@H](C)CC)C(C)C)C(=O)N[C@@H]([C@@H](C)CC)C(=O)N[C@@H](CO)C(=O)NC(CCCC)C(=O)N1)C(N)=O (some centres undefined) | 4.57 | 4.92 | inactive | inactive |  |  |  |
| CCCCC(NC(=O)[C@H](CCCCN)NC(=O)C(CCCC)NC(=O)[C@H](CO)NC(=O)[C@@H](NC(=O)CNC(=O)[C@H](CCCCN)NC(=O)[C@H](CO)NC(=O)[C@H](CCC(N)=O)NC(=O)[C@@H](NC(=O)[C@H](CCC(=O)O)NC(=O)[C@H](CCCCN)NC(=O)[C@@H]1CCCN1C(C)=O)[C@@H](C)CC)[C@@H](C)CC)C(N)=O (some centres undefined) (Ac-PKEIQSKGIS[ξNle]K[ξNle]-NH2) | < 4.12 |  | inactive | inactive |  |  |  |
| CCCCCCCCCCCCCCCCCCOCC(COP(=O)([O-])OCC[N+](C)(C)C)OC (centres undefined) [EDELFOSINE] |  |  |  |  | 0.6 | 9 | 1 |
| CCCCC(NC(=O)[C@H](CCCCN)NC(=O)C(CCCC)NC(=O)[C@H](CO)NC(=O)[C@@H](NC(=O)CNC(=O)[C@@H](NC(=O)[C@H](CO)NC(=O)[C@H](CCC(N)=O)NC(=O)[C@@H](NC(=O)[C@@H](NC(=O)[C@H](CCCCN)NC(=O)[C@@H]1CCCN1C(=O)[C@H](CCC(N)=O)NC(=O)[C@@H]1CCCN1C(=O)[C@@H]1CCCN1C(=O)[C@H](CCCNC(=N)N)NC(=O)[C@H](CCCNC(=N)N)NC(=O)[C@H](CCCNC(=N)N)NC(=O)[C@H](CCC(N)=O)NC(=O)[C@H](CCCNC(=N)N)NC(=O)[C@H](CCCNC(=N)N)NC(=O)[C@H](CCCCN)NC(=O)[C@H](CCCCN)NC(=O)[C@H](CCCNC(=N)N)NC(=O)CNC(C)=O)[C@@H](C)CC)[C@@H](C)CC)C(C)C)[C@@H](C)CC)C(N)=O (some centres undefined) (Ac-GRKKRRQRRRPPQPKIIQSVGIS[ξNle]K[ξNle]-NH2) |  |  |  |  | 1.5 | 4.3 | 1.2 |
| CCCCC(NC(=O)[C@H](CCCCN)NC(=O)[C@H](CCCCN)NC(=O)[C@H](CO)NC(=O)[C@@H](NC(=O)CNC(=O)[C@H](CCC(=O)O)NC(=O)[C@H](CO)NC(=O)[C@H](CCC(N)=O)NC(=O)[C@@H](NC(=O)[C@@H](NC(=O)[C@H](CCCCN)NC(=O)[C@@H]1CCCN1C(C)=O)[C@@H](C)CC)[C@@H](C)CC)[C@@H](C)CC)C(N)=O (some centres undefined) (Ac-PKIIQSEGISKK[ξNle]-NH2) | < 4.12 |  | inactive | inactive |  |  |  |
| CCCCC(NC(=O)[C@H](CCCCN)NC(=O)C(CCCC)NC(=O)[C@H](CO)NC(=O)[C@@H](NC(=O)CNC(=O)[C@@H](NC(=O)[C@H](CO)NC(=O)[C@H](CCC(N)=O)NC(=O)[C@@H](NC(=O)[C@@H](NC(=O)[C@H](CCCCN)NC(=O)[C@@H]1CCCN1C(=O)[C@H](CCCNC(=N)N)NC(=O)[C@H](CCCNC(=N)N)NC(=O)[C@H](CCCNC(=N)N)NC(=O)[C@H](CCCNC(=N)N)NC(=O)[C@H](CCCNC(=N)N)NC(=O)[C@H](CCCNC(=N)N)NC(=O)[C@H](CCCNC(=N)N)NC(=O)[C@H](CCCNC(=N)N)NC(=O)[C@H](CCCNC(=N)N)NC(C)=O)[C@@H](C)CC)[C@@H](C)CC)C(C)C)[C@@H](C)CC)C(N)=O (some centres undefined) (Ac-RRRRRRRRRPKIIQSVGIS[ξNle]K[ξNle]-NH2) |  |  |  |  | 3.5 | 4.6 | 1.7 |
| CCCCC(NC(=O)[C@H](CCCCN)NC(=O)C(CCCC)NC(=O)[C@H](CO)NC(=O)[C@@H](NC(=O)CNC(=O)[C@@H](NC(=O)[C@H](CO)NC(=O)[C@H](CCC(N)=O)NC(=O)[C@@H](NC(=O)[C@@H](NC(=O)[C@H](CCCCN)NC(=O)[C@@H]1CCCN1C(C)=O)[C@@H](C)CC)[C@@H](C)CC)C(C)C)[C@@H](C)CC)C(=O)N[C@@H](CCCNC(=N)N)C(=O)N[C@@H](CCCNC(=N)N)C(=O)N[C@@H](CCCNC(=N)N)C(=O)N[C@@H](CCCNC(=N)N)C(=O)N[C@@H](CCCNC(=N)N)C(=O)N[C@@H](CCCNC(=N)N)C(=O)N[C@@H](CCCNC(=N)N)C(=O)N[C@@H](CCCNC(=N)N)C(=O)N[C@@H](CCCNC(=N)N)C(N)=O (some centres undefined) |  |  |  |  | 2.1 | 4.4 | 0.8 |
| CCCCCCCCCCCCCCCCOP(=O)([O-])OCC[N+](C)(C)C [MILTEFOSINE] |  |  |  |  | 2 | 47.6 | 19 |
| Ac-PKEIQSKGI-NH2 | < 4.12 |  | inactive | inactive |  |  |  |
| CCCCC(NC(=O)[C@H](CCCCN)NC(=O)[C@@H]1CCCCNC(=O)CC[C@H](NC(=O)[C@H](CO)NC(=O)[C@H](CCC(N)=O)NC(=O)[C@@H](NC(=O)[C@@H](NC(=O)[C@H](CCCCN)NC(=O)[C@@H]2CCCN2C(C)=O)[C@@H](C)CC)[C@@H](C)CC)C(=O)NCC(=O)N[C@@H]([C@@H](C)CC)C(=O)N[C@@H](CO)C(=O)N1)C(N)=O (some centres undefined) (Ac-PKIIQSEGISKK[ξNle]-NH2; lactam 7-11) | < 4.12 | < 4.12 | inactive | inactive |  |  |  |
| Ac-PKIEQSVKI-NH2 | 4.32 |  | inactive | inactive |  |  |  |
| CC[C@H](C)[C@H](NC(=O)CNC(=O)[C@@H]1CCCCNC(=O)CC[C@H](NC(=O)[C@H](CCCCN)NC(=O)[C@@H]2CCCN2C(C)=O)C(=O)N[C@@H]([C@@H](C)CC)C(=O)N[C@@H](CCC(N)=O)C(=O)N[C@@H](CO)C(=O)N1)C(N)=O (Ac-PKEIQSKGI-NH2; lactam 3-7) | < 4.12 | < 4.12 | inactive | inactive |  |  |  |
| CCCCC(NC(=O)[C@H](CCCCN)NC(=O)C(CCCC)NC(=O)[C@H](CO)NC(=O)[C@@H](NC(=O)[C@H](CCCCN)NC(=O)[C@@H](NC(=O)[C@H](CO)NC(=O)[C@H](CCC(N)=O)NC(=O)[C@H](CCC(=O)O)NC(=O)[C@@H](NC(=O)[C@H](CCCCN)NC(=O)[C@@H]1CCCN1C(C)=O)[C@@H](C)CC)C(C)C)[C@@H](C)CC)C(N)=O (some centres undefined) (Ac-PKIEQSVKIS[ξNle]K[ξNle]-NH2) | < 4.12 |  | inactive | inactive |  |  |  |
| CC(=O)N[C@@H](CCCNC(=N)N)C(=O)N[C@@H](CCCNC(=N)N)C(=O)N[C@@H](CCCNC(=N)N)C(=O)N[C@@H](CCCNC(=N)N)C(=O)N[C@@H](CCCNC(=N)N)C(=O)N[C@@H](CCCNC(=N)N)C(=O)N[C@@H](CCCNC(=N)N)C(=O)N[C@@H](CCCNC(=N)N)C(=O)N[C@@H](CCCNC(=N)N)C(N)=O |  |  |  |  | > 25 | > 25 | > 25 |
| Ac-RRRRRRRRRKMGISSMVQPKII-NH2 |  |  |  |  | > 25 | > 25 | > 25 |
| CCCCC(NC(=O)[C@H](CCCCN)NC(=O)C(CCCC)NC(=O)[C@H](CO)NC(=O)[C@@H](NC(=O)CNC(=O)[C@@H]1CCCCNC(=O)CC[C@H](NC(=O)[C@H](CCCCN)NC(=O)[C@@H]2CCCN2C(=O)C(C)(C)NC(=O)[C@H](CCCNC(=N)N)NC(=O)[C@H](CCCNC(=N)N)NC(=O)C(C)(C)NC(=O)[C@H](CCCNC(=N)N)NC(=O)[C@H](CCCNC(=N)N)NC(=O)C(C)(C)NC(=O)[C@H](CCCNC(=N)N)NC(=O)[C@H](CCCNC(=N)N)NC(C)=O)C(=O)N[C@@H]([C@@H](C)CC)C(=O)NC(CCC(N)=O)C(=O)N[C@@H](CO)C(=O)N1)[C@@H](C)CC)C(N)=O (some centres undefined) (Ac-RR[Aib]RR[Aib]RR[Aib]PKEI[ξQ]SKGIS[ξNle]K[ξNle]-NH2; lactam 12-16) |  |  |  |  | 10.4 | 6.4 | 5.2 |
| CCCCC(NC(=O)[C@H](CCCCN)NC(=O)C(CCCC)NC(=O)[C@H](CO)NC(=O)[C@@H](NC(=O)[C@H](CCC(=O)O)NC(=O)[C@@H](NC(=O)[C@H](CO)NC(=O)[C@H](CCC(N)=O)NC(=O)[C@@H](NC(=O)[C@@H](NC(=O)[C@H](CCCCN)NC(=O)[C@@H]1CCCN1C(C)=O)[C@@H](C)CC)[C@@H](C)CC)C(C)C)[C@@H](C)CC)C(N)=O (some centres undefined) | < 4.12 |  | inactive | inactive |  |  |  |
| CCCCC(NC(=O)[C@H](CCCCN)NC(=O)C(CCCC)NC(=O)[C@H](CO)NC(=O)[C@@H](NC(=O)CNC(=O)[C@@H]1CCCCNC(=O)CC[C@H](NC(=O)[C@H](CCCCN)NC(=O)[C@@H]2CCCN2C(=O)[C@H](CCCNC(=N)N)NC(=O)[C@H](CCCNC(=N)N)NC(=O)[C@H](CCCNC(=N)N)NC(=O)[C@H](CCCNC(=N)N)NC(=O)[C@H](CCCNC(=N)N)NC(=O)[C@H](CCCNC(=N)N)NC(=O)[C@H](CCCNC(=N)N)NC(=O)[C@H](CCCNC(=N)N)NC(=O)[C@H](CCCNC(=N)N)NC(C)=O)C(=O)N[C@@H]([C@@H](C)CC)C(=O)N[C@@H](CCC(N)=O)C(=O)N[C@@H](CO)C(=O)N1)[C@@H](C)CC)C(N)=O (some centres undefined) (Ac-RRRRRRRRRPKEIQSKGIS[ξNle]K[ξNle]-NH2; lactam 12-16) |  |  |  |  | 2.8 | 3.5 | 2.5 |
| CC(=O)NCC(=O)N[C@@H](CCCNC(=N)N)C(=O)N[C@@H](CCCCN)C(=O)N[C@@H](CCCCN)C(=O)N[C@@H](CCCNC(=N)N)C(=O)N[C@@H](CCCNC(=N)N)C(=O)N[C@@H](CCC(N)=O)C(=O)N[C@@H](CCCNC(=N)N)C(=O)N[C@@H](CCCNC(=N)N)C(=O)N[C@@H](CCCNC(=N)N)C(=O)N1CCC[C@H]1C(=O)N1CCC[C@H]1C(=O)N[C@@H](CCC(N)=O)C(N)=O |  |  |  |  | > 25 | > 25 | > 25 |
